Measured values taken from patent US7012061B1 (New York University, priority 1998, dated 2006).
Values joined by “and” are separate entries in the source; they are usually repeats but may differ in a detail not shown here. Equal entries are not always repeated. Where two headings read alike, the source gives them in different places.

B1: IL-12: Murine rIL-12 provided by Genetics Institute (protein, UniProt P43431 23-215; P43432 23-335, looked up)
Interleukin-12 subunit alpha: RVIPVSGPARCLSQSRNLLKTTDDMVKTAREKLKHYSCTAEDIDHEDITRDQTSTLKTCLPLELHKNESCLATRETSSTTRGSCLPPQKTSLMMTLCLGSIYEDLKMYQTEFQAINAALQNHNHQQIILDKGMLVAIDELMQSLNHNGETLRQKPPVGEADPYRVKMKLCILLHAFSTRVVTINRVMGYLSSA
Interleukin-12 subunit beta: MWELEKDVYVVEVDWTPDAPGETVNLTCDTPEEDDITWTSDQRHGVIGSGKTLTITVKEFLDAGQYTCHKGGETLSHSHLLLHKKENGIWSTEILKNFKNKTFLKCEAPNYSGRFTCSWLVQRNMDLKFNIKSSSSSPDSRAVTCGMASLSAEKVTLDQRDYEKYSVSCQEDVTCPTAEETLPIELALEARQQNKYENYSTSFFIRDIIKPDPPKNLQMKPLKNSQVEVSWEYPDSWSTPHSYFSLKFFVRIQRKKEKMKETEEGCNQKGAFLVEKTSTEVQCKGGNVCVQAQDRYYNSSCSKWACVPCRVRS
B2: IFN-γ: Recombinant mouse IFN-γ purchased from Genzyme (protein, UniProt P01580 23-155, looked up)
Interferon gamma: HGTVIESLESLNNYFNSSGIDVEEKSLFLDIWRNWQKDGDMKILQSQIISFYLRLFEVLKDNQAISNNISVIESHLITTFFSNSKAKKDAFMSIAKFEVNNPQVQRQAFNELIRVVHQLLPESSLRKRKRSRC

What was measured:
VSV [1] = type: cell-based, Vesicular stomatitis virus; settings: for VSV in supernatant: NB41A3, 8 h pi; for Effect on IFN-γ-induced inhibition of VSV replication: NB41A3 cells
VSV [2] = type: cell-based, Vesicular stomatitis virus; settings: C6 Glia, moi = 1, 8 h pi
type I NOS = type I NOS (Homo sapiens, UniProt P29475); settings: Moore et al, 1993; cited from earlier work
Sequence of type I NOS (P29475 whole entry): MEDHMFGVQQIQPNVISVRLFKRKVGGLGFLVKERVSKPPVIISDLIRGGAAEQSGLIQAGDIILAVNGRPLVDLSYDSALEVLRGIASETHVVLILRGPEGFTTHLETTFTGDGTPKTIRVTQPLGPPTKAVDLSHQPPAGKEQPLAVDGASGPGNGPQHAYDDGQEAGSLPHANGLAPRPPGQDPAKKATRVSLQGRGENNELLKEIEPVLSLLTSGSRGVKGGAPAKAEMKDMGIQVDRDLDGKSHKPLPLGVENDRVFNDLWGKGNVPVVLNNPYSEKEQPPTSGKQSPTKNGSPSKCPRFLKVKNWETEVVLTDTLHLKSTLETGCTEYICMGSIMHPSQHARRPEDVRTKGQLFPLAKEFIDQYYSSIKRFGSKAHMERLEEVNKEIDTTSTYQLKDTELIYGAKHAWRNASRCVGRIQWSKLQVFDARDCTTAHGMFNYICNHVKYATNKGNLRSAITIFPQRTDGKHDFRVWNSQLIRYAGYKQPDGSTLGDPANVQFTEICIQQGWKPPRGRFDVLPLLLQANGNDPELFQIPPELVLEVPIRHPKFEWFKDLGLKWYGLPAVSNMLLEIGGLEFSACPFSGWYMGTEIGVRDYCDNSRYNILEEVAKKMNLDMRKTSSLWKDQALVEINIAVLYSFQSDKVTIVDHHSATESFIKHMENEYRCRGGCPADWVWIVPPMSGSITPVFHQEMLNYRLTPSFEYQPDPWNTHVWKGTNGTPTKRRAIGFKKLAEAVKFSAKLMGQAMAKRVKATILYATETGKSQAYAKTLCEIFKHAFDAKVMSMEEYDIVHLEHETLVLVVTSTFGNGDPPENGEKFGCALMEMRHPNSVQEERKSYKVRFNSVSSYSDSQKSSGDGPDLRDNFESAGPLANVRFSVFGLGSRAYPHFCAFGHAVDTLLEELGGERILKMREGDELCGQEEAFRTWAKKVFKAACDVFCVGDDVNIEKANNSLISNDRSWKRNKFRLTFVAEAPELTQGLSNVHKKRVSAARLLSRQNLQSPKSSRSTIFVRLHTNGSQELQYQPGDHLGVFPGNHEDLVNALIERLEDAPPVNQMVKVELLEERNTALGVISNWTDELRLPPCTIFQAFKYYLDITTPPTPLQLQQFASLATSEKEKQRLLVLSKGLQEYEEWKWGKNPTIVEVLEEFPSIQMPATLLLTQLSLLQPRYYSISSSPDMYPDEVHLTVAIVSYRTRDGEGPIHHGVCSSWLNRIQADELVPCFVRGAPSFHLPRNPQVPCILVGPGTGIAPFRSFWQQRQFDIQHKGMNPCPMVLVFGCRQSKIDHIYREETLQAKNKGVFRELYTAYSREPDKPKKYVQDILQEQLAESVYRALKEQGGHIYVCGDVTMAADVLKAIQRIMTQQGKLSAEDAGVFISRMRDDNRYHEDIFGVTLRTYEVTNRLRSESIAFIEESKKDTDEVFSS

Sindbis AR339 virus = type: cell-based
Influenza virus A/WSN/33 = type: cell-based
VSV [3] = type: cell-based, Vesicular stomatitis virus; settings: RAW, inhibitors, moi = 1, 8 h pi
VSV [4] = type: in vivo, mice
HSV-1 = type: cell-based, Herpes Simplex virus-1
aortic endothelial cells = settings: Clark et al, 1988; cited from earlier work
IL-12 = system: IL-12; set-up: species or system mice; key: − = no visual staining; + = minimal staining; ++ = moderate staining; +++ = strong staining; settings: mouse, in vivo
VSV protein = type: cell-based, Vesicular stomatitis virus
MHC-II = system: MHC-II; set-up: species or system mice; key: − = no visual staining; + = minimal staining; ++ = moderate staining; +++ = strong staining; settings: mouse, in vivo
MHC-I = system: MHC-I; set-up: species or system mice; key: − = no visual staining; + = minimal staining; ++ = moderate staining; +++ = strong staining; settings: mouse, in vivo
blood brain barrier [5] = system: blood brain barrier; set-up: species or system mice; settings: mouse, in vivo
VSV [6] = system: VSV; set-up: species or system mice; key: − = no visual staining; + = minimal staining; ++ = moderate staining; +++ = strong staining; settings: mouse, in vivo
VSV mRNA (N gene) = type: cell-based, Vesicular stomatitis virus
blood brain barrier [7] = settings: mouse, in vivo
[8] = set-up: species or system mice; settings: mouse, in vivo
VSV [9] = system: VSV; set-up: species or system mice; settings: mouse, in vivo, ip
IFN-R = system: IFN-R; set-up: species or system mice; key: − = no visual staining; + = minimal staining; ++ = moderate staining; +++ = strong staining; settings: mouse, in vivo
[10] = system: NOS activity in RAW cells; assay: NO2 release into culture medium (Griess reagent), RAW cells; type: cell-based, murine; settings: RAW macrophage line, incubation with 5 ng rIFNγ
Method: (§1) FIGS. 2A–2C show the kinetics of the IFN-γ augmented NOS activity in NB41A3 neuroblastoma, C6 rat glioma and RAW cells. Aliquots of supernatant were removed from triplicate wells of 2×10^5 NB41A3 (FIG. 2A), RAW (FIG. 2B) or C6 (FIG. 2C) cells, cultured with medium or with 5 ng IFN-γ for up to 72 hours. The medium was assayed for the presence of NO2 using the Griess reagent, and expressed as nM NO2 ±S.D. present.
(§2) The concentration of NO in culture supernatants was determined by assaying its stable end-product, NO2 (Bredt et al, 1989). Briefly, equal volumes of experimental sample and Griess reagent (1% sulfanilamidide, 0.1% N-1-naphthylethylene-diamine, 5H3PO4) (Sigma) were incubated at room temperature for ten minutes. The reaction produces a pink color, which was quantitated at 540 nm against standards in the same buffer, using an automated plate reader (Bio-Tek, Inc., model EL309). The data is expressed as mM.

[11] = system: NOS activity in C6 rat glioma cells; assay: NO2 release into culture medium (Griess reagent), C6 cells; type: cell-based; settings: astrocytes (C6), co-culture with IFN-γ
Method: as §1, §2

[12] = system: NOS activity in NB41A3 neuroblastoma cells; assay: NO2 release into culture medium (Griess reagent), NB41A3 cells; type: cell-based
Method: as §1, §2

[13] = 5 μg IFN-γ for 72 hours prior to infection, inhibitors 400 mM, 8 hour infection, moi = 1
[14] = Media (no IFN-γ), inhibitors 400 mM, 8 hour infection, moi = 1
[15] = IFN-γ 5 ng for 72 hours, inhibitors 400 mM, moi = 1
[16] = Medium, inhibitors 400 mM, moi = 1
[17] = NMDA 500 mM for two minutes, inhibitors 400 mM, moi = 1
[18] = IFN-γ 5 ng for 72 hours, inhibitors 400 mM

Molecule | VSV infectious virus in supernatant (VSV [1]; [13]) | VSV infectious virus in supernatant (VSV [1]; [14]) | VSV in supernatant (VSV [1]; [15]) | VSV in supernatant (VSV [1]; [16]) | VSV in supernatant (VSV [1]; [17]) | VSV in supernatant (VSV [2]; [18]) | VSV in supernatant (VSV [2]; Medium, inhibitors 400 mM) | VSV in supernatant (VSV [2]) | Sindbis infectious virus in supernatant (Sindbis AR339 virus) | Influenza infectious virus in supernatant (Influenza virus A/WSN/33; [13]) | Influenza infectious virus in supernatant (Influenza virus A/WSN/33; [14]) | VSV in supernatant (VSV [3]; IFN-γ 5 ng for 72 hours) | VSV in supernatant (VSV [3]; Medium) | HSV-1 infectious virus in supernatant (HSV-1) | also measured
O=[N+]([O-])c1cccc2cn[nH]c12 [7-NI, 7-nitroindazole] | 5.752 ± .331 Log10 PFU | 5.985 ± .428 Log10 PFU | 5.76 ± .10 log10 PFU | 5.76 ± .18 log10 PFU | 5.57 ± .15 log10 PFU | 4.54 ± .14 log10 PFU | 5.83 ± .14 log10 PFU | 4.59 ± .52 log10 PFU | 4.935 ± .056 Log10 PFU and 3.897 ± .089 Log10 PFU | 3.897 ± .089 Log10 PFU | 5.560 ± .489 Log10 PFU | 4.84 ± .15 log10 PFU | 5.87 ± .08 log10 PFU | 5.159 ± .194 Log10 PFU and 5.170 ± .264 Log10 PFU | Effect on IFN-γ-induced inhibition of VSV replication (VSV [1]): abrogation; NOS isoform selectivity (type I NOS): selective inhibitor of type I, but not types II or III NOS; Effect on IL-12-mediated enhanced clearance of VSV (VSV [4]; BALB/c male mice, 50 mg/kg with 200 ng IL-12, four days post infection): abrogated; Geometric mean titer (GMT) of virus in brain homogenates compared to indazole-treated mice (VSV [4]; BALB/c male mice, 50 mg/kg, four days post infection): ten-fold greater GMT; Effect on IFN-γ-induced inhibition of HSV-1 replication (HSV-1): abrogation
CN[C@H](CC(=O)O)C(=O)O [NMDA] | – | – | – | – | 3.71 ± .20 log10 PFU | – | – | 5.54 ± .24 log10 PFU | – | – | – | – | – | – | –
c1ccc2[nH]ncc2c1 [Indazole, indazole] | 3.678 ± .174 Log10 PFU | 5.460 ± .408 Log10 PFU | 4.23 ± .29 log10 PFU | 5.58 ± .27 log10 PFU | 4.39 ± .36 log10 PFU | 4.48 ± .42 log10 PFU | 5.63 ± .19 log10 PFU | 4.48 ± .17 log10 PFU | 5.053 ± .217 Log10 PFU and 3.752 ± .046 Log10 PFU | 3.546 ± .212 Log10 PFU | 5.268 ± .350 Log10 PFU | 4.49 ± .48 log10 PFU | 5.45 ± .21 log10 PFU | 5.140 ± .204 Log10 PFU and 3.175 ± .369 Log10 PFU | –
CN[C@@H](CCCNC(=N)N)C(=O)O [L-NMA, L-N-Methyl Arginine] | 5.761 ± .151 Log10 PFU | 5.948 ± .089 Log10 PFU | 5.77 ± .21 log10 PFU | 5.76 ± .25 log10 PFU | 5.59 ± .27 log10 PFU | 5.59 ± .26 log10 PFU | 5.85 ± .08 log10 PFU | 5.38 ± .37 log10 PFU | 5.033 ± .238 Log10 PFU and 3.796 ± .084 Log10 PFU | 3.767 ± .208 Log10 PFU | 5.810 ± .131 Log10 PFU | 5.71 ± .09 log10 PFU | 5.83 ± .13 log10 PFU | 5.359 ± .225 Log10 PFU and 5.227 ± .208 Log10 PFU | Effect on IFN-γ-induced inhibition of VSV replication (VSV [1]): abrogation; Effect on IFN-γ-induced inhibition of HSV-1 replication (HSV-1): abrogation
NC1=NN(c2cccc(C(F)(F)F)c2)CC1 [BW 755c] | – | – | – | – | – | – | – | – | – | – | – | – | – | – | TNF-induced injury to aortic endothelial cells (aortic endothelial cells): reduced
B1 | – | – | – | – | – | – | – | – | – | – | – | – | – | – | IL-12 relative intensity of staining (IL-12): + and − and ++; Difference in relative amounts of viral protein between treated and untreated samples (VSV protein): approximately 80%; MHC-II relative intensity of staining (MHC-II): ++ and + and +++ and −; MHC-I relative intensity of staining (MHC-I): ++ and + and +++ and −; Breakage of the BBB (Evans blue) (blood brain barrier [5]): did not show breakage of the BBB; VSV relative intensity of staining (VSV [6]): +++ and ++ and + and −; Difference in relative amounts of viral mRNA between treated and untreated samples (VSV mRNA (N gene)): approximately 20%; Decrease of VSV titer in brain homogenates (VSV [4]; mouse, in vivo): about 100 fold; Integrity of the BBB (TEM, intercellular junction gaps) (blood brain barrier [7]): not enough to disrupt the integrity of the BBB; Time at which weight exceeded initial measurements [8]: ≤ 12 days after infection; Time at which weight exceeded initial measures [8]: ≤ 12 days after infection; Weight loss recovery from VSV infection [8]: rapidly recover from the weight loss; Number of survivors versus control medium (VSV [9]): greater; Survival and weight recovery from VSV infection (VSV [9]): not able to rescue; Survival rate from VSV infection versus control mice (VSV [9]): twice the survival rate; IFN-R relative intensity of staining (IFN-R): ++ and − and +
B2 | – | – | – | – | – | – | – | – | 3.318 ± .373 Log10 PFU | – | – | – | – | 3.467 ± .408 Log10 PFU | VSV infectious virus in supernatant (VSV [1]): 3.752 ± .034 Log10 PFU; VSV replication in NB41A3 cells (VSV [1]): significantly inhibited; Replication of Sindbis virus in NB41A3 cells (Sindbis AR339 virus): significantly inhibited; Influenza infectious virus in supernatant (Influenza virus A/WSN/33): 3.810 ± .130 Log10 PFU; Replication of influenza virus A/WSN/33 in NB41A3 cells (Influenza virus A/WSN/33): significantly inhibited; Time to plateau levels of NO2 production [10]: ≤ 24 h; Time to substantial levels of NO2 production [11]: 72 h; NO production by NB41A3 cells ([12]; IFN-γ treatment): significantly increased; Time to substantial levels of NO2 production ([12]; Neuroblastoma cells, co-culture with IFN-γ): 72 h; HSV-1 replication in NB41A3 cells (HSV-1): significantly inhibited
